12 compounds from US12441762B2, “Hepatitis c virus NS3/4A protease inhibitors” (priority 2019, dated 2025) can be followed below.

Structures are written as SMILES.

Holding throughout (assay): biochemical
The target of test [1] is T1, wild-type HCV NS3/4A protease (GT1a) (Hepatitis C virus genotype 1a, UniProt P27958, C1185S).
T1 construct: His-tag (cleaved yes); made in house; host or cells: Escherichia coli BL21(DE3), PET28a vector
Format: biochemical. In a few lines:
(§1)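 Inhibitors pre-incubated 1 h at room temperature with 2 nM NS3/4A protease (GT1a C159S or D168A) in 50 mM Tris, 5% glycerol, 10 mM DTT, 0.6 mM LDAO, 4% DMSO, pH 7.5. Km from global Michaelis-Menten fit of inner-filter-corrected initial velocities; three independent data sets per inhibitor and construct.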

In test [2] the target is T2, HCV NS3/4A protease D168A variant (Hepatitis C virus genotype 1a, UniProt P27958, C1185S/D1194A).
T2 construct: His-tag (cleaved yes); made in house; host or cells: Escherichia coli BL21(DE3), PET28a vector
T2 sequence (P27958 1027-1208 C1185S/D1194A): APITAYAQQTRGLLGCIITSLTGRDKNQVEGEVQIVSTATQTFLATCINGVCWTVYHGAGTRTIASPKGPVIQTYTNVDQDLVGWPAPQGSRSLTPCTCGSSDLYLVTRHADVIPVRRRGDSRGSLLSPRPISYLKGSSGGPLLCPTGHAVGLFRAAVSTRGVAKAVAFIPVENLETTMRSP
In kind it is biochemical. In a few lines:
as §1

The target in the next test is HCV NS3/4A protease GT3 (Hepatitis C virus genotype 3a, UniProt Q81495).
Sequence of HCV NS3/4A protease GT3 (Q81495 1033-1214): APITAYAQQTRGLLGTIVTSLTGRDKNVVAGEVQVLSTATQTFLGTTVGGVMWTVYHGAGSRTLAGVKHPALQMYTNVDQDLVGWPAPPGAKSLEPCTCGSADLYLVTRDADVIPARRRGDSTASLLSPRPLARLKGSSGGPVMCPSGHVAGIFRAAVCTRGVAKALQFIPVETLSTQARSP
Sequence of HCV NS3/4A protease GT3 (Q81495 1664-1717): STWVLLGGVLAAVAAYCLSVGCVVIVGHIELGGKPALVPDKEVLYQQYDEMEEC
The subject of test [3] is HCV NS3/4A protease D168A variant. In kind it is biochemical, Hepatitis C virus. The conditions noted are these: for Fold Change of D168A Ki with respect to GT1a wild-type: Table S1, value in parentheses. In a few lines: as §1

T1 sequence (P27958 1027-1208 C1185S): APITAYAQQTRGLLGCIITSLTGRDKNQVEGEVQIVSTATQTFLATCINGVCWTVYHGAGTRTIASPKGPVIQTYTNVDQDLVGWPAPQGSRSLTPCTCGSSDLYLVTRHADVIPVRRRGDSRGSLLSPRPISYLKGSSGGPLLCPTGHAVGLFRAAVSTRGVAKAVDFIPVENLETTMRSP

Regarding `COc1ccc2nc(C(F)(F)F)c(O[C@@H]3C[C@H]4C(=O)N[C@]5(C(=O)NS(=O)(=O)C6(C)CC6)C[C@H]5/C=C\CCCCC[C@H](NC(=O)OC5(C(F)(F)F)CCC5)C(=O)N4C3)nc2c1` [NR02-59, 1-(Trifluoromethyl)cyclobutyl ((2R,6S,13aS,14aR,16aS,Z)-2-((7-methoxy-3-(trifluoromethyl)quinoxalin-2-yl)oxy)-14a-(((1-methylcyclopropyl)sulfonyl)carbamoyl)-5,16-dioxo-1,2,3,5,6,7,8,9,10,11,13a,14,14a,15,16,16a-hexadecahydrocyclopropa[e]pyrrolo[1,2-a][1,4]diazacyclopentadecin-6-yl)carbamate], the inhibition constant Ki in test [1] was 2 ± 0.2 nM; in test [2] it was 12.2 ± 1.1 nM; on HCV NS3/4A protease GT3, 133 ± 25 nM.

For `COc1ccc2nc(C)c(O[C@@H]3C[C@H]4C(=O)N[C@]5(C(=O)NS(=O)(=O)C6(C)CC6)C[C@H]5/C=C\CCCCC[C@H](NC(=O)O[C@H](C)C(F)(F)F)C(=O)N4C3)nc2c1` [NR01-145, (R)-1,1,1-Trifluoropropan-2-yl ((2R,6S,13aS,14aR,16aS,Z)-2-((7-methoxy-3-methylquinoxalin-2-yl)oxy)-14a-(((1-methylcyclopropyl)sulfonyl)carbamoyl)-5,16-dioxo-1,2,3,5,6,7,8,9,10,11,13a,14,14a,15,16,16a-hexadecahydrocyclopropa[e]pyrrolo[1,2-a][1,4]diazacyclopentadecin-6-yl)carbamate], the Ki stood at 1.1 ± 0.1 nM in test [1], 8 ± 1 nM in test [2] and 122 ± 11 nM on HCV NS3/4A protease GT3.

`COc1ccc2nc(C(F)(F)F)c(O[C@@H]3C[C@H]4C(=O)N[C@]5(C(=O)NS(=O)(=O)C6(C)CC6)C[C@H]5/C=C\CCCCC[C@H](NC(=O)OC5(C)CCC5)C(=O)N4C3)nc2c1` [NR02-62, 1-Methylcyclobutyl ((2R,6S,13aS,14aR,16aS,Z)-2-((7-methoxy-3-(trifluoromethyl)quinoxalin-2-yl)oxy)-14a-(((1-methylcyclopropyl)sulfonyl)carbamoyl)-5,16-dioxo-1,2,3,5,6,7,8,9,10,11,13a,14,14a,15,16,16a-hexadecahydrocyclopropa[e]pyrrolo[1,2-a][1,4]diazacyclopentadecin-6-yl)carbamate]: the Ki came to 4.86 ± 0.39 nM in test [1], 20.7 ± 0.7 nM in test [2] and 283 ± 21 nM on HCV NS3/4A protease GT3.

As for `COc1ccc2nc(C(F)(F)F)c(O[C@@H]3C[C@H]4C(=O)N[C@]5(C(=O)NS(=O)(=O)C6(C)CC6)C[C@H]5/C=C\CCCCC[C@H](NC(=O)O[C@@H](C)C(F)(F)F)C(=O)N4C3)nc2c1` [NR02-32, (S)-1,1,1-Trifluoropropan-2-yl ((2R,6S,13aS,14aR,16aS,Z)-2-((7-methoxy-3-(trifluoromethyl)quinoxalin-2-yl)oxy)-14a-(((1-methylcyclopropyl)sulfonyl)carbamoyl)-5,16-dioxo-1,2,3,5,6,7,8,9,10,11,13a,14,14a,15,16,16a-hexadecahydrocyclopropa[e]pyrrolo[1,2-a][1,4]diazacyclopentadecin-6-yl)carbamate], the inhibition constant (Ki) in test [1] is 7.69 ± 0.89 nM; in test [2], 44.6 ± 7.3 nM; on HCV NS3/4A protease GT3, 580 ± 50 nM.

For `COc1ccc2nc(C(F)(F)F)c(O[C@@H]3C[C@H]4C(=O)N[C@]5(C(=O)NS(=O)(=O)C6(C)CC6)C[C@H]5/C=C\CCCCC[C@H](NC(=O)O[C@@H](C)C(C)C)C(=O)N4C3)nc2c1` [NR01-101, (S)-3-Methylbutan-2-yl ((2R,6S,13aS,14aR,16aS,Z)-2-((7-methoxy-3-(trifluoromethyl)quinoxalin-2-yl)oxy)-14a-(((1-methylcyclopropyl)sulfonyl)carbamoyl)-5,16-dioxo-1,2,3,5,6,7,8,9,10,11,13a,14,14a,15,16,16a-hexadecahydrocyclopropa [e]pyrrolo[1,2-a][1,4]diazacyclopentadecin-6-yl)carbamate], the Ki in test [1] worked out at 6.1 ± 0.57 nM; in test [2] it was 26.2 ± 2.3 nM; on HCV NS3/4A protease GT3 it was 447 ± 25 nM.

Take `COc1ccc2nc(C)c(O[C@@H]3C[C@H]4C(=O)N[C@]5(C(=O)NS(=O)(=O)C6(C)CC6)C[C@H]5/C=C\CCCCC[C@H](NC(=O)[C@@H](NC(C)=O)C5CCCC5)C(=O)N4C3)nc2c1` [Inhibitor P4P5-3A, (2R,6S,13aS,14aR,16aS, Z)-6-((S)-2-acetamido-2-cyclopentylacetamido)-2-((7-methoxy-3-methylquinoxalin-2-yl)oxy)-N-((1-methylcyclopropyl)sulfonyl)-5,16-dioxo-1,2,3,6,7,8,9,10,11,13a,14,15,16,16a-tetradecahydrocyclopropa[e]pyrrolo[1,2-a][1,4]diazacyclopentadecine-14a(5H)-carboxamide]: the “Fold Change of D168A Ki with respect to GT1a wild-type” value (“Fold Change of D168A Ki” below) in test [3] is “(39) fold”. Moreover, the “fold less potent than the methyl carbamate analog P4P5-3B” value in test [3] (acetamide (3A) vs methyl carbamate (3B)) is listed as around 3 fold. Also, the Ki in test [1] was 2.23 ± 0.07 nM; in test [2], 87.3 nM.

Turning to `COc1ccc2nc(C(F)(F)F)c(O[C@@H]3C[C@H]4C(=O)N[C@]5(C(=O)NS(=O)(=O)C6(C)CC6)C[C@H]5/C=C\CCCCC[C@H](NC(=O)O[C@@H]5C[C@@H]6C[C@@H]6C5)C(=O)N4C3)nc2c1` [NR04-49, (1R,3R,5S)-Bicyclo[3.1.0]hexan-3-yl ((2R,6S,13aS,14aR,16aS,Z)-2-((7-methoxy-3-(trifluoromethyl)quinoxalin-2-yl)oxy)-14a-(((1-methylcyclopropyl)sulfonyl)carbamoyl)-5,16-dioxo-1,2,3,5,6,7,8,9,10,11,13a,14,14a,15,16,16a-hexadecahydrocyclopropa[e]pyrrolo[1,2-a][1,4]diazacyclopentadecin-6-yl)carbamate], on HCV NS3/4A protease GT3, the affinity corresponds to a Ki of 170 ± 13 nM.

With `CC[C@H](C)[C@H](NC(C)=O)C(=O)N[C@H]1CCCCC/C=C\[C@@H]2C[C@@]2(C(=O)NS(=O)(=O)C2(C)CC2)NC(=O)[C@@H]2C[C@@H](Oc3nc4cc(OC)ccc4nc3C)CN2C1=O` [Inhibitor P4P5-4, (2R,6S,13aS,14aR,16aS,Z)-6-((2S,3S)-2-acetamido-3-methylpentanamido)-2-((7-methoxy-3-methylquinoxalin-2-yl)oxy)-N-((1-methylcyclopropyl)sulfonyl)-5,16-dioxo-1,2,3,6,7,8,9,10,11,13a,14,15,16,16a-tetradecahydrocyclopropa[e]pyrrolo[1,2-a][1,4]diazacyclopentadecine-t4a(5H)-carboxamide], the “Fold Change of D168A Ki” value in test [3] is “(11) fold”. Moreover, the Ki in test [1] amounted to 7.1 ± 0.24 nM; in test [2] it was 81 nM.

Take `COC(=O)N[C@H](C(=O)N[C@H]1CCCCC/C=C\[C@@H]2C[C@@]2(C(=O)NS(=O)(=O)C2(C)CC2)NC(=O)[C@@H]2C[C@@H](Oc3nc4cc(OC)ccc4nc3C)CN2C1=O)C(C)(C)C` [Inhibitor P4P5-2B, Methyl ((S)-1-(((2R,6S,13aS,14aR,16aS,Z)-2-((7-methoxy-3-methylquinoxalin-2-yl)oxy)-14a-(((1-methylcyclopropyl)sulfonyl)carbamoyl)-5,16-dioxo-1,2,3,5,6,7,8,9,10,11,13a,14,14a,15,16,16a-hexadecahydrocyclopropa[e]pyrrolo[1,2-a][1,4]diazacyclopentadecin-6-yl)amino)-3,3-dimethyl-1-oxobutan-2-yl)carbamate]: the “Fold Change of D168A Ki” value in test [3] is “(8) fold”. Moreover, the Ki in test [1] was found to be 29.5 ± 1.9 nM; in test [2], 201 ± 15 nM.

Consider `COc1ccc2nc(C)c(O[C@@H]3C[C@H]4C(=O)N[C@]5(C(=O)NS(=O)(=O)C6(C)CC6)C[C@H]5/C=C\CCCCC[C@H](NC(=O)OC5(C)CCC5)C(=O)N4C3)nc2c1` [NR02-61, 1-Methylcyclobutyl ((2R,6S,13aS,14aR,16aS,Z)-2-((7-methoxy-3-methylquinoxalin-2-yl)oxy)-14a-(((1-methylcyclopropyl)sulfonyl)carbamoyl)-5,16-dioxo-1,2,3,5,6,7,8,9,10,11,13a,14,14a,15,16,16a-hexadecahydrocyclopropa[e]pyrrolo [1,2-a][1,4]diazacyclopentadecin-6-yl)carbamate], for which, in test [3], the “Fold Change of D168A Ki” value was “(33) fold”. Besides, the Ki in test [1] turned out to be 1.4 ± 0.13 nM; in test [2], 46.4 ± 3.4 nM. Further, in test [1] (compared to parent compound), the “fold increase in potency towards WT compared to the parent compound” value came out at 4 fold.

Take `COC(=O)N[C@H](C(=O)N[C@H]1CCCCC/C=C\[C@@H]2C[C@@]2(C(=O)NS(=O)(=O)C2(C)CC2)NC(=O)[C@@H]2C[C@@H](Oc3nc4cc(OC)ccc4nc3C)CN2C1=O)C1CCCCC1` [Inhibitor P4P5-6, Methyl ((S)-1-cyclohexyl-2-(((2R,6S,13aS,14aR,16aS,Z)-2-((7-methoxy-3-methylquinoxalin-2-yl)oxy)-14a-(((1-methylcyclopropyl)sulfonyl)carbamoyl)-5,16-dioxo-1,2,3,5,6,7,8,9,10,11,13a,14,14a,15,16,16a-hexadecahydrocyclopropa[e]pyrrolo[1,2-a][1,4]diazacyclopentadecin-6-yl)amino)-2-oxoethyl)carbamate]: the “Fold Change of D168A Ki” value in test [3] is on record as “(11) fold”. For the same compound, the Ki came to 0.91 ± 0.38 nM in test [1] and 9.68 ± 0.64 nM in test [2]. Further, the “fold more potent than grazoprevir towards D168A” value in test [2] (compared to grazoprevir) is recorded as 5 fold.

In the case of `COc1ccc2nc(C)c(O[C@@H]3C[C@H]4C(=O)N[C@]5(C(=O)NS(=O)(=O)C6(C)CC6)C[C@H]5/C=C\CCCCC[C@H](NC(=O)[C@@H](NC(C)=O)C(C)(C)C)C(=O)N4C3)nc2c1` [Inhibitor P4P5-2A, (2R,6S,13aS,14aR,16aS,Z)-6-((S)-2-Acetamido-3,3-dimethylbutanamido)-2-((7-methoxy-3-methylquinoxalin-2-yl)oxy)-N-((1-methylcyclopropyl)sulfonyl)-5,16-dioxo-1,2,3,6,7,8,9,10,11,13a,14,15,16,16a-tetradecahydrocyclopropa[e]pyrrolo[1,2-a][1,4]diazacyclopentadecine-14a(5H)-carboxamide], the “Fold Change of D168A Ki” value in test [3] is “(9) fold”. The results for the Ki in test [1] and in test [2] were 23.9 ± 1.7 nM and 215 ± 16 nM, respectively.
